Here are results for 1 molecule from publication PMC12066179, “Naphthyl-Substituted Ruthenium(II)–Arene Complexes: Exploring the Impact of Binding Modes on Cytotoxicity in Cancer and Normal Cell Lines” (Bioinorganic Chemistry and Applications, 2025).

Series [1] relates to Caco-2 (colorectal cancer) cell line. The experiment in a line: MTT cell viability assay, Caco-2. The class given is cell-based. Here is the method: (§1) The MTT assay, which is based on the reduction of 3-(4,5-dimethylthiazol-2-yl)-2,5-diphenyltetrazolium bromide to a purple formazan product, was performed to estimate cell viability and growth. To determine the appropriate dose and time, we performed the MTT assay in HepG2, MCF-7, Caco-2, and Vero cell lines. Cell suspensions of […] cell lines were first prepared at densities of 1 × 10^4/mL cells per well of 96-well culture dishes and plated in triplicate. Cells were then incubated with the complexes (2.5, 5, 10, 25, and 50 μM) for 24 and 48 h. After the treatment using the complexes, a 10 μL MTT (Glentham Life Sciences, GC4568) solution was added to each well, followed by incubation for 4 h at 37°C in 5% CO2. The medium was then discarded, and 50 μL DMSO was added to each well to dissolve the formazan crystals. The absorbance was immediately measured at 540 nm using a UV-visible spectrophotometer multiplate reader.
In general terms: Tetrazolium assays rely on reduction of a dye to a coloured formazan, in cell work by metabolically active cells.

For series [2], the system named is Vero (normal kidney) cell line. The series can be described thus: MTT cell viability assay, Vero. As to conditions: for IC50: MTT. Format: cell-based. How it is done:
as §1

A further series addresses FS-DNA. The experiment in a line: FS-DNA binding by UV-Vis titration. As to conditions: complex 0–15 μM, 20 mM Tris-HCl/NaCl buffer pH 7.2. Here is the method: To investigate these interactions, UV-Vis analyses were performed on complexes Ru1-3 (0–15 μM) in 20 mM Tris-HCl/NaCl buffer (pH 7.2) containing 0.1 mM FS-DNA. The corresponding absorption spectra are provided in the supporting information. Aromatic naphthyl groups are known for their ability to intercalate between DNA base pairs. […] While Ru1 is a cationic complex with a high capacity for hydrogen bonding, potentially facilitating ionic interactions with DNA, its overall interaction was weaker compared to the other complexes.
UV-visible spectroscopy was employed to investigate the interaction between […] and Ru1-3. Different concentrations of Ru1-3 (0–15 μM) were titrated against a fixed concentration of FS-DNA ([…]) to monitor changes in absorbance at 260 nm. The analysis of these titration data allowed for the determination of the binding constant (Kb) using the following equation:(1) 1/A−A0=1/Amax−A0+1/C×1/KbAmax−A0, where A is the absorbance of FS-DNA at a specific concentration with increasing complex concentration, A0 is the absorbance of FS-DNA without complex, Amax is the absorbance of the FS-DNA complex at the final state, and C is the complex concentration.

Series [3] relates to HepG2 (liver cancer) cell line. The series can be described thus: MTT cell viability assay, HepG2. Format: cell-based. Here is the method:
as §1

The test system of series [4] is MCF-7 (breast cancer) cell line. The experiment in a line: MTT cell viability assay, MCF-7. Format: cell-based. Here is the method:
as §1

Consider `Cc1ccc(C(C)C)cc1.Cc1ccc(S(=O)(=O)[N](CCNc2cccc3ccccc23)[Ru][Cl])cc1` [Ru2], for which the IC50 in series [1] (24 h exposure) is 1.39 µM; in series [1] (48 h exposure), 3.39 µM; in series [2] (24 h exposure) it was 7.8 µM; in series [2] (48 h exposure), 38.3 µM; in series [3] (24 h exposure), 4.72 µM; in series [3] (48 h exposure) it was 8.8 µM. Moreover, the IC50 in series [4] (24 h exposure) worked out at 2.81 µM; in series [4] (48 h exposure), 8.75 µM. The “Cytotoxic activity in Vero healthy cell line” value in series [2] (50–2.5 μM, 24 h and 48 h) was “did not manifest any cytotoxic activity at concentrations other than 50 μM”. On FS-DNA, the “Binding constant (Kb) with FS-DNA” value is 22700 M⁻¹.

A word on the IC50: it is the midpoint of a concentration-inhibition curve. A low value points to inhibition by little substance.
